Reference: patent US20200024278A1, “COMPOSITION COMPRISING ANTIBIOTIC COMPOUND AND AN HETEROCYCLIC COMPOUND AND THEIR USE IN PREVENTING OR TREATING BACTERIAL INFECTIONS” (MUTABILIS, priority 2016, published 2020)

Tests used:
Assay in all cases: MIC, broth microdilution (CLSI), substance alone or ATB combined with compound at 4 or 8 μg/mL
ECL P99 = format: cell-based, E. cloacae; settings: ECL P99
Method in brief: (§1)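 Potentiation format: antibiotic dilution series run with test compound held at 4 or 8 μg/mL, alongside compound-alone MICs. Broth microdilution per CLSI in ca-MHB, 16-20 h at 35° C.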

KPN 6299 = format: cell-based, K. pneumoniae
Method in brief: as §1

KPN BAA-1898 = format: cell-based, K. pneumoniae; settings: KPN BAA-1898
Method in brief: as §1

KPN UFR42 = format: cell-based, K. pneumoniae; settings: KPN UFR42
Method in brief: as §1

SPN 49619 = format: cell-based, S. pneumoniae; settings: SPN 49619
Method in brief: as §1

SAU 29213 = format: cell-based, S. aureus; settings: SAU 29213
Method in brief: as §1

[1] = Klebsiella pneumoniae, antibiotic alone, read-out: MIC ATB alone

`NCC[C@H](O)C(=O)N[C@@H]1C[C@H](N)[C@@H](O[C@H]2O[C@H](CN)[C@@H](O)[C@H](O)[C@H]2O)[C@H](O)[C@H]1O[C@H]1O[C@H](CO)[C@@H](O)[C@H](N)[C@H]1O` [AN, Amikacin, reference compound] was tested, and the “MIC ATB combined with Example 1 @8 μg/ml” value (ECL P99; with Example 1 @8 μg/ml) was less than 0.031 µg/mL, the “MIC ATB combined with Example 1 @8 μg/ml” value (ECL P99; with Example 1 at 8 μg/ml) was less than 0.031 µg/mL and the “MIC ATB combined with Example 7 @8 μgml” value (ECL P99; with Example 7 at 8 μg/ml) was 0.063 µg/mL. For the same compound, the “MIC ATB combined with Example 9 @4 μg/ml” value (ECL P99; with Example 9 @4 μg/ml) was less than 0.031 µg/mL, the “MIC ATB combined with Example 9 @4 μg/ml” value (ECL P99; with Example 9 at 4 μg/ml) was less than 0.031 µg/mL and the “MIC ATB combined with Example 11 @8 μg/ml” value (ECL P99; with Example 11 at 8 μg/ml) was less than 0.031 µg/mL. The “MIC ATB combined with Example 12 @8 μg/ml” value (ECL P99; with Example 12 at 8 μg/ml) was less than 0.031 µg/mL, the “MIC ATB combined with Example 13 @8 μg/ml” value (ECL P99; with Example 13 at 8 μg/ml) was 0.125 µg/mL and the “MIC ATB combined with Example 14 @8 μg/ml” value (ECL P99; with Example 14 at 8 μg/ml) was less than 0.031 µg/mL. For the same compound, the “MIC ATB combined with Example 15 @4 μgml” value (ECL P99; with Example 15 at 4 μg/ml) was “<=0.031 μg/mL”, the “MIC ATB combined with Example 16 @4 μg/ml” value (ECL P99; with Example 16 at 4 μg/ml) was less than 0.031 µg/mL and the MIC (ECL P99; Enterobacter cloacae, antibiotic alone, read-out: MIC ATB alone) was 0.063 µg/mL. The MIC (KPN 6299; [1]) was 16 µg/mL, the “MIC ATB combined with Example 1 @8 μg/ml” value (KPN 6299; with Example 1 @8 μg/ml) was 16 µg/mL and the “MIC ATB combined with Example 1 @8 μg/ml” value (KPN 6299; with Example 1 at 8 μg/ml) was 16 µg/mL. For the same compound, the “MIC ATB combined with Example 7 @8 μgml” value (KPN 6299; with Example 7 at 8 μg/ml) was 2 µg/mL, the “MIC ATB combined with Example 9 @4 μg/ml” value (KPN 6299; with Example 9 @4 μg/ml) was less than 0.031 µg/mL and the “MIC ATB combined with Example 9 @4 μg/ml” value (KPN 6299; with Example 9 at 4 μg/ml) was less than 0.031 µg/mL. The “MIC ATB combined with Example 11 @8 μg/ml” value (KPN 6299; with Example 11 at 8 μg/ml) was less than 0.031 µg/mL, the “MIC ATB combined with Example 12 @8 μg/ml” value (KPN 6299; with Example 12 at 8 μg/ml) was less than 0.031 µg/mL and the “MIC ATB combined with Example 13 @8 μg/ml” value (KPN 6299; with Example 13 at 8 μg/ml) was 4 µg/mL. The “MIC ATB combined with Example 14 @8 μg/ml” value (KPN 6299; with Example 14 at 8 μg/ml) was less than 0.031 µg/mL, the “MIC ATB combined with Example 15 @4 μgml” value (KPN 6299; with Example 15 at 4 μg/ml) was “<=0.031 μg/mL” and the “MIC ATB combined with Example 16 @4 μg/ml” value (KPN 6299; with Example 16 at 4 μg/ml) was less than 0.031 µg/mL. The “MIC ATB combined with Example 1 @8 μg/ml” value (KPN BAA-1898; with Example 1 @8 μg/ml) was 0.25 µg/mL, the “MIC ATB combined with Example 1 @8 μg/ml” value (KPN BAA-1898; with Example 1 at 8 μg/ml) was 0.25 µg/mL and the “MIC ATB combined with Example 7 @8 μgml” value (KPN BAA-1898; with Example 7 at 8 μg/ml) was 0.125 µg/mL. The “MIC ATB combined with Example 9 @4 μg/ml” value (KPN BAA-1898; with Example 9 @4 μg/ml) was less than 0.031 µg/mL, the “MIC ATB combined with Example 9 @4 μg/ml” value (KPN BAA-1898; with Example 9 at 4 μg/ml) was less than 0.031 µg/mL and the “MIC ATB combined with Example 11 @8 μg/ml” value (KPN BAA-1898; with Example 11 at 8 μg/ml) was less than 0.031 µg/mL. The “MIC ATB combined with Example 12 @8 μg/ml” value (KPN BAA-1898; with Example 12 at 8 μg/ml) was less than 0.031 µg/mL, the “MIC ATB combined with Example 13 @8 μg/ml” value (KPN BAA-1898; with Example 13 at 8 μg/ml) was 0.25 µg/mL and the “MIC ATB combined with Example 14 @8 μg/ml” value (KPN BAA-1898; with Example 14 at 8 μg/ml) was less than 0.031 µg/mL. For the same compound, the “MIC ATB combined with Example 15 @4 μgml” value (KPN BAA-1898; with Example 15 at 4 μg/ml) was “<=0.031 μg/mL”, the “MIC ATB combined with Example 16 @4 μg/ml” value (KPN BAA-1898; with Example 16 at 4 μg/ml) was less than 0.031 µg/mL and the MIC (KPN BAA-1898; Klebsiella pneumoniae, BAA1898, antibiotic alone, read-out: MIC ATB alone) was 1 µg/mL. For the same compound, the “MIC ATB combined with Example 1 @8 μg/ml” value (KPN UFR42; with Example 1 @8 μg/ml) was greater than 32 µg/mL, the “MIC ATB combined with Example 1 @8 μg/ml” value (KPN UFR42; with Example 1 at 8 μg/ml) was greater than 32 µg/mL and the “MIC ATB combined with Example 7 @8 μgml” value (KPN UFR42; with Example 7 at 8 μg/ml) was greater than 32 µg/mL. For the same compound, the “MIC ATB combined with Example 9 @4 μg/ml” value (KPN UFR42; with Example 9 @4 μg/ml) was greater than 32 µg/mL, the “MIC ATB combined with Example 9 @4 μg/ml” value (KPN UFR42; with Example 9 at 4 μg/ml) was greater than 32 µg/mL and the “MIC ATB combined with Example 11 @8 μg/ml” value (KPN UFR42; with Example 11 at 8 μg/ml) was 0.25 µg/mL. The “MIC ATB combined with Example 12 @8 μg/ml” value (KPN UFR42; with Example 12 at 8 μg/ml) was less than 0.031 µg/mL, the “MIC ATB combined with Example 13 @8 μg/ml” value (KPN UFR42; with Example 13 at 8 μg/ml) was greater than 32 µg/mL and the “MIC ATB combined with Example 14 @8 μg/ml” value (KPN UFR42; with Example 14 at 8 μg/ml) was less than 0.031 µg/mL. For the same compound, the “MIC ATB combined with Example 15 @4 μgml” value (KPN UFR42; with Example 15 at 4 μg/ml) was greater than 32 µg/mL, the “MIC ATB combined with Example 16 @4 μg/ml” value (KPN UFR42; with Example 16 at 4 μg/ml) was less than 0.031 µg/mL and the MIC (KPN UFR42; [1]) was greater than 32 µg/mL. For the same compound, the “MIC ATB combined with Example 1 @8 μg/ml” value (SPN 49619; with Example 1 @8 μg/ml) was 32 µg/mL, the “MIC ATB combined with Example 1 @8 μg/ml” value (SPN 49619; with Example 1 at 8 μg/ml) was 32 µg/mL and the “MIC ATB combined with Example 7 @8 μgml” value (SPN 49619; with Example 7 at 8 μg/ml) was greater than 32 µg/mL. For the same compound, the “MIC ATB combined with Example 9 @4 μg/ml” value (SPN 49619; with Example 9 @4 μg/ml) was less than 0.031 µg/mL, the “MIC ATB combined with Example 9 @4 μg/ml” value (SPN 49619; with Example 9 at 4 μg/ml) was less than 0.031 µg/mL and the “MIC ATB combined with Example 11 @8 μg/ml” value (SPN 49619; with Example 11 at 8 μg/ml) was 32 µg/mL. For the same compound, the “MIC ATB combined with Example 12 @8 μg/ml” value (SPN 49619; with Example 12 at 8 μg/ml) was 4 µg/mL, the “MIC ATB combined with Example 13 @8 μg/ml” value (SPN 49619; with Example 13 at 8 μg/ml) was greater than 32 µg/mL and the “MIC ATB combined with Example 14 @8 μg/ml” value (SPN 49619; with Example 14 at 8 μg/ml) was 4 µg/mL. For the same compound, the “MIC ATB combined with Example 15 @4 μgml” value (SPN 49619; with Example 15 at 4 μg/ml) was 32 µg/mL, the “MIC ATB combined with Example 16 @4 μg/ml” value (SPN 49619; with Example 16 at 4 μg/ml) was 16 µg/mL and the MIC (SPN 49619; Streptococcus pneumoniae, antibiotic alone, read-out: MIC ATB alone) was 32 µg/mL. For the same compound, the “MIC ATB combined with Example 1 @8 μg/ml” value (SAU 29213; with Example 1 @8 μg/ml) was 4 µg/mL, the “MIC ATB combined with Example 1 @8 μg/ml” value (SAU 29213; with Example 1 at 8 μg/ml) was 4 µg/mL and the “MIC ATB combined with Example 7 @8 μgml” value (SAU 29213; with Example 7 at 8 μg/ml) was 2 µg/mL. The “MIC ATB combined with Example 9 @4 μg/ml” value (SAU 29213; with Example 9 @4 μg/ml) was less than 0.031 µg/mL, the “MIC ATB combined with Example 9 @4 μg/ml” value (SAU 29213; with Example 9 at 4 μg/ml) was less than 0.031 µg/mL and the “MIC ATB combined with Example 11 @8 μg/ml” value (SAU 29213; with Example 11 at 8 μg/ml) was less than 0.031 µg/mL. For the same compound, the “MIC ATB combined with Example 12 @8 μg/ml” value (SAU 29213; with Example 12 at 8 μg/ml) was less than 0.031 µg/mL.
